Several values for one entry are separate records, joined by “and”; a condition that tells them apart may be missing. Equal entries are not always repeated. Toxic doses and inconclusive results are not listed. How the source made its calls: active means survival T/C of 150% or more; inactive means T/C below 125% in these data.
System: BDF1 mice, P388 leukemia ip, median survival T/C
Test: NCI In Vivo Anticancer Drug Screen. Data for tumor model P388 Leukemia (intraperitoneal) in B6D2F1 (BDF1) mice
Conditions: endpoint: median survival time, higher = longer survival
Procedure, shortened: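 Each value expresses how treatment altered survival: treated-mouse outcome over vehicle-mouse outcome, both groups bearing the transplanted tumour.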

[1] = dose: 100.0 mg/kg/injection, schedule: Q01DX009 (ip), vehicle: saline
[2] = dose: 200.0 mg/kg/injection, schedule: Q01DX009 (ip), vehicle: saline
[3] = dose: 400.0 mg/kg/injection, schedule: Q01DX009 (ip), vehicle: saline
[4] = dose: 50.0 mg/kg/injection, schedule: Q01DX009 (ip), vehicle: saline with Tween-80
[5] = dose: 100.0 mg/kg/injection, schedule: Q01DX009 (ip), vehicle: saline with Tween-80
[6] = dose: 25.0 mg/kg/injection, schedule: Q01DX009 (ip), vehicle: saline with Tween-80

Measured: T/C

CN(C)/N=N/c1[nH]ncc1C(N)=O
inactive: dose: 50.0 mg/kg/injection, schedule: Q01DX009 (ip), vehicle: Klucel (hydroxypropylcellulose) (HPC) 95 % of control | dose: 100.0 mg/kg/injection, schedule: Q01DX009 (ip), vehicle: Klucel (hydroxypropylcellulose) (HPC) 104 % of control | dose: 100.0 mg/kg/injection, schedule: Q04DX003 (ip), vehicle: alcohol 118 % of control | dose: 200.0 mg/kg/injection, schedule: Q04DX003 (ip), vehicle: alcohol 113 % of control

CCOC(=O)c1cc[nH]c1CC(=O)NCc1ccccc1
inactive: dose: 100.0 mg/kg/injection, schedule: Q01DX001 (ip), vehicle: saline with Tween-80 97 % of control | dose: 200.0 mg/kg/injection, schedule: Q01DX001 (ip), vehicle: saline with Tween-80 118 % of control | dose: 400.0 mg/kg/injection, schedule: Q01DX001 (ip), vehicle: saline with Tween-80 103 % of control

NCCS(=O)(=O)O
inactive: dose: 12.5 mg/kg/injection, schedule: Q01DX009 (ip), vehicle: saline 90 % of control and 100 % of control | dose: 17.5 mg/kg/injection, schedule: Q01DX009 (ip), vehicle: saline 123 % of control | dose: 25.0 mg/kg/injection, schedule: Q01DX009 (ip), vehicle: saline 110 % of control | dose: 35.0 mg/kg/injection, schedule: Q01DX009 (ip), vehicle: saline 123 % of control | dose: 50.0 mg/kg/injection, schedule: Q01DX009 (ip), vehicle: saline 100 % of control (2×) and 113 % of control | dose: 70.0 mg/kg/injection, schedule: Q01DX009 (ip), vehicle: saline 107 % of control | [1] 86 % of control and 94 % of control | [2] 100 % of control | [3] 95 % of control and 105 % of control

COc1ccccc1C(=O)/C=C\c1ccc(OCc2ccccc2)cc1
inactive: [4] 89 % of control | [5] 86 % of control | dose: 200.0 mg/kg/injection, schedule: Q01DX009 (ip), vehicle: saline with Tween-80 87 % of control

FC(F)(F)c1nc2nc(Cl)c(Cl)nc2s1
inactive: dose: 0.78 mg/kg/injection, schedule: Q04DX003 (ip), vehicle: other 104 % of control | dose: 1.56 mg/kg/injection, schedule: Q01DX009 (ip), vehicle: other 99 % of control | dose: 1.56 mg/kg/injection, schedule: Q04DX003 (ip), vehicle: other 117 % of control | dose: 3.12 mg/kg/injection, schedule: Q01DX009 (ip), vehicle: other 90 % of control | dose: 3.12 mg/kg/injection, schedule: Q04DX003 (ip), vehicle: other 98 % of control | dose: 6.25 mg/kg/injection, schedule: Q01DX009 (ip), vehicle: other 90 % of control | dose: 6.25 mg/kg/injection, schedule: Q04DX003 (ip), vehicle: other 121 % of control | dose: 12.5 mg/kg/injection, schedule: Q01DX009 (ip), vehicle: other 99 % of control | dose: 12.5 mg/kg/injection, schedule: Q04DX003 (ip), vehicle: other 111 % of control

NC(=S)Nc1cccc(Cl)c1
inactive: dose: 25.0 mg/kg/injection, schedule: Q04DX003 (ip), vehicle: Klucel (hydroxypropylcellulose) (HPC) 118 % of control | dose: 50.0 mg/kg/injection, schedule: Q04DX003 (ip), vehicle: Klucel (hydroxypropylcellulose) (HPC) 104 % of control | dose: 100.0 mg/kg/injection, schedule: Q04DX003 (ip), vehicle: Klucel (hydroxypropylcellulose) (HPC) 104 % of control

CCOC(=O)c1c(NC(=O)CCl)ssc1=S
inactive: dose: 0.78 mg/kg/injection, schedule: Q01DX009 (ip), vehicle: saline with Tween-80 116 % of control | dose: 1.56 mg/kg/injection, schedule: Q01DX009 (ip), vehicle: saline with Tween-80 116 % of control | dose: 3.12 mg/kg/injection, schedule: Q01DX009 (ip), vehicle: saline with Tween-80 116 % of control | dose: 6.25 mg/kg/injection, schedule: Q01DX009 (ip), vehicle: saline with Tween-80 116 % of control | dose: 12.5 mg/kg/injection, schedule: Q01DX009 (ip), vehicle: saline with Tween-80 114 % of control | [6] 109 % of control | [4] 111 % of control | dose: 50.0 mg/kg/injection, schedule: Q04DX003 (ip), vehicle: saline with Tween-80 102 % of control | dose: 200.0 mg/kg/injection, schedule: Q04DX003 (ip), vehicle: saline with Tween-80 100 % of control | dose: 400.0 mg/kg/injection, schedule: Q04DX003 (ip), vehicle: saline with Tween-80 116 % of control

O=C1NC(=O)C(CSCc2ccccc2)(CSCc2ccccc2)N1
inactive: dose: 3.12 mg/kg/injection, schedule: Q04DX003 (ip), vehicle: saline with Tween-80 101 % of control | dose: 6.25 mg/kg/injection, schedule: Q04DX003 (ip), vehicle: saline with Tween-80 102 % of control | dose: 12.5 mg/kg/injection, schedule: Q04DX003 (ip), vehicle: saline with Tween-80 99 % of control | [6] 99 % of control | dose: 25.0 mg/kg/injection, schedule: Q04DX003 (ip), vehicle: saline with Tween-80 98 % of control | [4] 107 % of control | [5] 92 % of control | dose: 400.0 mg/kg/injection, schedule: Q01DX009 (ip), vehicle: saline with Tween-80 86 % of control

CCCCC[C@H](O)/C=C/[C@@H]1[C@@H](C/C=C\CCCC(=O)O)[C@@H](O)C[C@H]1O
inactive: dose: 0.25 mg/kg/injection, schedule: Q#A X020 (ip), vehicle: saline 110 % of control | dose: 0.5 mg/kg/injection, schedule: Q#A X020 (ip), vehicle: saline 101 % of control | dose: 1.0 mg/kg/injection, schedule: Q#A X020 (ip), vehicle: saline 100 % of control | dose: 2.5 mg/kg/injection, schedule: Q04DX003 (ip), vehicle: saline with Tween-80 94 % of control | dose: 5.0 mg/kg/injection, schedule: Q04DX002 (ip), vehicle: saline 97 % of control | dose: 10.0 mg/kg/injection, schedule: Q04DX003 (ip), vehicle: saline with Tween-80 105 % of control | dose: 20.0 mg/kg/injection, schedule: Q04DX002 (ip), vehicle: saline 105 % of control | dose: 40.0 mg/kg/injection, schedule: Q04DX002 (ip), vehicle: saline 105 % of control | dose: 80.0 mg/kg/injection, schedule: Q04DX002 (ip), vehicle: saline 97 % of control

CCOc1ccc([N+](=O)[O-])cc1CN(CC)CC
inactive: dose: 5.0 mg/kg/injection, schedule: Q01DX009 (ip), vehicle: saline 104 % of control | dose: 10.0 mg/kg/injection, schedule: Q01DX009 (ip), vehicle: saline 95 % of control and 100 % of control | dose: 20.0 mg/kg/injection, schedule: Q01DX009 (ip), vehicle: saline 113 % of control

COc1cc2c(cc1OC)-c1cc3cc(OC)c(OC)cc3c(CCC(=O)O)[n+]1CC2 (tested in a mixture with another compound)
inactive: [1] 106 % of control | [2] 92 % of control | [3] 90 % of control

C=C1C(=O)OC2C1CCC(=C)C1CC(O)C(=C)C12 (stereo unspecified)
inactive: dose: 7.4 mg/kg/injection, schedule: Q01DX009 (ip), vehicle: saline with Tween-80 91 % of control | dose: 11.0 mg/kg/injection, schedule: Q01DX009 (ip), vehicle: saline with Tween-80 104 % of control | dose: 16.0 mg/kg/injection, schedule: Q01DX009 (ip), vehicle: saline with Tween-80 91 % of control | [6] 100 % of control

COC(=O)c1cc(=O)nc(N/N=C/c2ccc(OC)cc2)s1
inactive: dose: 50.0 mg/kg/injection, schedule: Q01DX005 (ip), vehicle: saline with Tween-80 102 % of control | dose: 100.0 mg/kg/injection, schedule: Q01DX005 (ip), vehicle: saline with Tween-80 102 % of control | dose: 200.0 mg/kg/injection, schedule: Q01DX005 (ip), vehicle: saline with Tween-80 102 % of control

Reference: PubChem BioAssay AID328 (DTP/NCI, 2004)
